Assay results: publication PMC11108826 (Synthetic and Systems Biotechnology, 2024)

Biological target: T1, ORF-L16 (Saccharopolyspora spinosa, UniProt Q9ALP2)
T1 sequence (Q9ALP2 1-278): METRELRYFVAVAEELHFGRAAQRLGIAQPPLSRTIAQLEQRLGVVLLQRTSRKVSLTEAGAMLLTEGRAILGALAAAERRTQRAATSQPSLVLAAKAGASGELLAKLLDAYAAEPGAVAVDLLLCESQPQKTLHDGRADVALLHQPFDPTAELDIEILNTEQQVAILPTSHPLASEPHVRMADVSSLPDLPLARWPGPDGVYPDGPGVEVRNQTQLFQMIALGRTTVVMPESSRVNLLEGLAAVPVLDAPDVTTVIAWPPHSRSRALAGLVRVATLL
Experiment: isothermal titration calorimetry
Type: binding

With `CC[C@H]1CCC[C@H](O[C@H]2CC[C@H](N(C)C)[C@@H](C)O2)[C@@H](C)C(=O)C2=C[C@@H]3[C@@H](C=C[C@@H]4C[C@@H](O[C@@H]5O[C@@H](C)[C@H](OC)[C@@H](OC)[C@H]5OC)C[C@@H]34)[C@@H]2CC(=O)O1` [spinosyn A] the Kd was 2360 ± 40 nM.
